Read-outs that look alike come from different tables or passages of the source. One block for each compound: values may come before it.
What was measured:
[1] = molecular target: T1, human α3β2γ2 GABAΑ receptor (Homo sapiens, UniProt P34903+P47870); experiment: FMP assay at α3β2γ2 GABAA receptors in HEK cells; type: cell-based
T1 construct: expressed in transfected cells; host or cells: HEK background (HEK293 Flp-In stably expressing NPBWR2), transient α:β:γ 1:1:2
Protocol: HEK293 cells were maintained in DMEM containing GlutaMAX-I, supplemented with 10% FBS and 1% penicillin-streptomycin and incubated at 37 °C and a humidity of 5% CO2. For expression of δ-containing GABAΑ receptors, a HEK293 Flp-In^ΤΜ cell line stably expressing the human GABAΑ δ-subunits (referred to as δ-HEK) was used and the γ-containing subtypes was expressed in a background HEK293 Flp-In^ΤΜ cell line stably expressing the G-protein coupled peptide receptor NPBWR2 (referred to as HEK background)[26], both positively selected for using 200 μg/mL hygromycin B. α1β2γ2 receptors were stably expressed in a HEK293 cell line maintained as above but with no selection (gift from Marianne L. Jensen, Neurosearch).
To express recombinant GABAΑ receptors human α1, α2, α3, α5, α6, β2, γ2 (pcDNA3.1/Zeo) and α4, β1 (pUNIV)[26] subunit cDNA were transiently transfected into either δ-HEK or HEK background cells. δ-HEK cells were transfected with α- and β-subunits in a 1:1 ration whereas HEK background cells were transfected with α-, β- and γ-subunits in a 1:1:2 ratio. Human BGT1 (pcDNA5/FRT)[43] was transiently transfected into the δ-HEK cell line. δ-HEK cells transfected for whole-cell patch-clamp recordings were co-transfected with green fluorescent protein (GFP) as well as α- and β-subunits in a 0.5:1:1 ratio (0.8 μg + 1.6 μg + 1.6 μg in a 6 cm dish) in order to identify transfected cells. The transfection was carried out using Polyfect as transfection reagent according to the manufactures protocol expect for using half the recommended volume of Polyfect.
The FMP assay was performed as previously described with a few modifications. […] Data was obtained as changes in fluorescence units (∆RFU) by measuring emission at 560 nm caused by excitation at 530 nm. […]
Data obtained in the FMP assay are given as relative changes in fluorescence units (ΔRFU) by subtracting the average of the baseline fluorescence signal from the peak fluorescence signal after compound addition. […]

[2] = molecular target: T2, human α4β1δ receptors in δ-HEK cells (Homo sapiens, UniProt P18505+P48169); experiment: Whole-cell patch-clamp electrophysiology, kinetic studies of GABA activation after 018 pre-application; type: cell-based
T2 construct: expressed in transfected cells; host or cells: δ-HEK (HEK293 Flp-In stably expressing human δ), transiently transfected with α4 and β1 1:1
T2 sequence (P48169 36-554): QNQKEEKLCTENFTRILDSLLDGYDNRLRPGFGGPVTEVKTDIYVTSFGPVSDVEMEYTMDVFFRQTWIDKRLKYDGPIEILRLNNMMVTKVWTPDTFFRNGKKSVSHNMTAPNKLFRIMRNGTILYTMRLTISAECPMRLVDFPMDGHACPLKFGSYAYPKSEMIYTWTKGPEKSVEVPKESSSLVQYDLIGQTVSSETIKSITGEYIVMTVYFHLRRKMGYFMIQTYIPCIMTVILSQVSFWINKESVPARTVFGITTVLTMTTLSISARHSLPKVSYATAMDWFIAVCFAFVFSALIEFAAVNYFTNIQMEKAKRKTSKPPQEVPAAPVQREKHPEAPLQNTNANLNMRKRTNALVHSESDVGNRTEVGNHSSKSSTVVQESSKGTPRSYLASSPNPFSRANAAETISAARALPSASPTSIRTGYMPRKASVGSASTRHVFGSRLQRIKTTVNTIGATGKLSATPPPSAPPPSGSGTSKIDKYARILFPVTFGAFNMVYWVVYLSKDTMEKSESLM
T2 sequence (P18505 26-474): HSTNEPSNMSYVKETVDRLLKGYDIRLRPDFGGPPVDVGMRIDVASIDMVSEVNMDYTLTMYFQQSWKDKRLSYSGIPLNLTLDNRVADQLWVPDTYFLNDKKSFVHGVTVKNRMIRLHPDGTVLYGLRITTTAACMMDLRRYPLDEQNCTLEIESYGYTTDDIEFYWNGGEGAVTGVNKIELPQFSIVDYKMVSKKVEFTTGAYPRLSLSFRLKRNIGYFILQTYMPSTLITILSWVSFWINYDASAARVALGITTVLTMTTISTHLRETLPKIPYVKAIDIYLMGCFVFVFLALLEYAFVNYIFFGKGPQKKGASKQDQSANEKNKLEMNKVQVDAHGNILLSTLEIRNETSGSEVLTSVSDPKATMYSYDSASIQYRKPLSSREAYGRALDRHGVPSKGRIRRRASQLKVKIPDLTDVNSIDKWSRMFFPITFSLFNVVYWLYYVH
T2 sequence (O14764 25-452 partner): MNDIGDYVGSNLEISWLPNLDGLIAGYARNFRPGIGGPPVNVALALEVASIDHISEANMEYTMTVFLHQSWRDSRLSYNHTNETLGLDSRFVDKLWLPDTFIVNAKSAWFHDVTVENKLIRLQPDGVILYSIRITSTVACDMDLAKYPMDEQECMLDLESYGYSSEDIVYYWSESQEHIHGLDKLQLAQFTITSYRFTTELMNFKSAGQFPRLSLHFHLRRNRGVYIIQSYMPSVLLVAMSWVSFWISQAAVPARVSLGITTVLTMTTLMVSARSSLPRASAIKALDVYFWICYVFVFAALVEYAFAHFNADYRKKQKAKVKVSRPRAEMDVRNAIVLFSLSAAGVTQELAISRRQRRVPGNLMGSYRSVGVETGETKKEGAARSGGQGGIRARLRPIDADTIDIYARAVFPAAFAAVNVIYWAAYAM
Protocol: δ-HEK cells transiently expressing human α4β1δ receptors were seeded in 35 mm Petri dishes the day before experiment and used for recordings in a similar was as previously reported. On the day of experiment the dishes were transferred to the stage of an Axiovert 10 microscope (Zeiss, Germany), and the culture medium was exchanged for artificial balanced salt solution (ABBS) at room temperature (20−24 °C). The ABSS solution contained the following (in mM): NaCl 140, KCl 3.5, Na2HPO4 1.25, MgSO4 2, CaCl2 2, glucose 10, and HEPES 10; pH 7.35. The cells were viewed at 200× magnification, and cells containing green fluorescent protein were visualized with UV light from an HBO 50 lamp (Zeiss, Germany). The cells were approached with micropipettes of 1.2−3.3 MΩ resistance manufactured from 1.5 mm OD glass (World Precision Instruments, Sarasota, Florida) on a microelectrode puller, model PP-830 (Narishige, Tokyo, Japan). The intrapipette solution contained the following (in mM): KCl 140, MgCl2 1, CaCl2 1, EGTA 10, MgATP 2, and HEPES 10; pH 7.3. Standard patch-clamp techniques in voltage clamp mode[44] were used to record from cells in the whole-cell configuration using an EPC-9 amplifier (HEKA, Lambrecht, Germany). A clamping potential of −60 mV was used, and series resistance was 80% compensated. Whole-cell currents were recorded and subsequently analyzed using Pulse and PulseFit software (HEKA, Lambrecht, Germany).
ABSS solution containing the compounds were applied using two VC3–8xP pressurized application systems feeding into a sixteen-barreled perfusion pipette (ALA Scientific Instruments Inc., Farmingdale New York, USA) ending approximately 100 μm from the recorded cell. Between the compound applications, compound-free ABSS was applied from one of the barrels in order to quickly remove the compounds from the cell. […] The cells were left to recover for 1 min before the next application.
Current relaxations were fitted to a single or biexponential equation using a Simplex optimization algorithm (PulseFit; HEKA, Lambrecht, Germany). I(t)=I0+I1exp−t/τ1+I2exp−t/τ2
With I denoting the currents at a time t and τ1 and τ2 the time constants. All curve-fitting results were carefully inspected visually. In some cases, the current relaxations were fitted to both a mono- and a biexponential function and an F-test was applied to the residual sum of squares to determine the appropriateness of using a second component: F=(SSA−SSB)dfB/SSB(dfA−dfB)=(RMSA2−RMSB2)dfB/RMSB2(dfA−dfB) where SS and RMS are the sum of squares and root mean square deviation between fit and data, respectively. A and B refer to the single and biexponential fit, respectively. df represents the degree of freedom for each fit. Time constants were given as medians followed by the 25–75% percentile in square brackets.

[3] = 100 μM GABA, 3 nM 018, biexponential fit
[4] = 100 μM GABA, 10 nM 018, biexponential fit
[5] = 100 μM GABA, 30 nM 018, biexponential fit
[6] = […] GABA, 10 nM 018, biexponential fit
[7] = […] GABA, 30 nM 018, biexponential fit, n = 5

T1 sequence (P34903 29-492): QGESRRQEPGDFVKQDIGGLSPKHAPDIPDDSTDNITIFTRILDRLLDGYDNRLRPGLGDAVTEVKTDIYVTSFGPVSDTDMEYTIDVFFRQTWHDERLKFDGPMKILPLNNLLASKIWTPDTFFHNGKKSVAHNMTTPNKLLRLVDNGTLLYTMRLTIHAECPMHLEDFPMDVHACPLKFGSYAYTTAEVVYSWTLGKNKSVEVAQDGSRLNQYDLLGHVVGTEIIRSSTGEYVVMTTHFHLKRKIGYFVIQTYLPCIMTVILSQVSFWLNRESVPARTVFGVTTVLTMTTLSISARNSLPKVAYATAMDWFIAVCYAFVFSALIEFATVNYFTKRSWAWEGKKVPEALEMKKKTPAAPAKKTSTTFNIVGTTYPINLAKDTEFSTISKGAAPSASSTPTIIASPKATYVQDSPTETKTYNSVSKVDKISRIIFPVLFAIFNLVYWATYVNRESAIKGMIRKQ
T1 sequence (P47870 25-512 limits assumed): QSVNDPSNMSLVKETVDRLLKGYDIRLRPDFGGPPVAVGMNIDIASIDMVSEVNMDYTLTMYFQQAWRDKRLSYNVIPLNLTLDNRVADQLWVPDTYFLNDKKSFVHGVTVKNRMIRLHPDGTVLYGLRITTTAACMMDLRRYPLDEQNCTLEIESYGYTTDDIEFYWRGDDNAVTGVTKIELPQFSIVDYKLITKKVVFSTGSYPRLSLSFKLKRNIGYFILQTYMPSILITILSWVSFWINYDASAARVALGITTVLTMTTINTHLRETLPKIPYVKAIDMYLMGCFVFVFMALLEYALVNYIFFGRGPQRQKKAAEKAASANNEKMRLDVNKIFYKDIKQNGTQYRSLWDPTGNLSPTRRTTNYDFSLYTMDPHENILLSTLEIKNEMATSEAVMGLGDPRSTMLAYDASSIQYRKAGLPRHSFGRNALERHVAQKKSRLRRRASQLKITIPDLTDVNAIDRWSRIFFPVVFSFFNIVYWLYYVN
T1 sequence (P18507 40-475 partner): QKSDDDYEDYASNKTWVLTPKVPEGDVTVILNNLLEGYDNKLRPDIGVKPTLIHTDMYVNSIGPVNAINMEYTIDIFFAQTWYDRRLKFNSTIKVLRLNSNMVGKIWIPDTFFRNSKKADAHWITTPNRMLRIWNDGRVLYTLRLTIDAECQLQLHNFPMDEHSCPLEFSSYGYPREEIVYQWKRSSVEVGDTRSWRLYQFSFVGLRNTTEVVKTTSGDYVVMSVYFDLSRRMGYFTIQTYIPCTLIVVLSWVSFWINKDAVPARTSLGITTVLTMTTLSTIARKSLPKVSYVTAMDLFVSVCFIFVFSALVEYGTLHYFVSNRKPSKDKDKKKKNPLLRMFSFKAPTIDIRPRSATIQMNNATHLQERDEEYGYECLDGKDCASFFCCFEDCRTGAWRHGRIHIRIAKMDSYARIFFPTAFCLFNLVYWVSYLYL

IC50 ([1]; read-out: IC50): 79 nM | t1 ([2]; 100 μM GABA, 0.1 nM 018, monoexponential fit): 37.1 ms | %A1 ([2]; 100 μM GABA, 3 nM 018): 81.5% | t1 [2, 3]: 29.6 ms | t2 [2, 3]: 1070 ms | %A1 ([2]; 100 μM GABA, 10 nM 018): 33.9% | t1 [2, 4]: 41.4 ms | t2 [2, 4]: 2170 ms | %A1 ([2]; 100 μM GABA, 30 nM 018): 7.5% | t1 [2, 5]: 34.0 ms | t2 [2, 5]: 3685 ms | τ1 (ms) ([2]; […] GABA, 0.1 nM 018, monoexponential fit): 119 [101;167]^a ms | τ2 (ms) ([2]; […] GABA, 3 nM 018, biexponential fit): 1090 [960;2180] — ms | τ1 (ms) ([2]; […] GABA, 3 nM 018, biexponential fit, n = 7): 147 [115;183] ms | %A1 ([2]; […] GABA, 3 nM 018, fast component share of total current): 83.8 — % | τ1 (ms) ([2]; […] GABA, 3 nM 018, monoexponential fit, n = 3): 123 [73.3;273] ms | %A1 ([2]; […] GABA, 10 nM 018): 39.6% | τ1 (ms) [2, 6]: 107 [57.5;180] ms | τ2 (ms) [2, 6]: 2170 [1970;3010] ms | %A1 ([2]; […] GABA, 30 nM 018): 8.3 — % | τ1 [2, 7]: 68.0 ms | τ1 (ms) [2, 7]: 68.0 [56.3;106] — ms | τ2 (ms) [2, 7]: 3780 [3160;4710] ms | τ2 (ms) ([2]; […] GABA, 30 nM 018, monoexponential fit, n = 3): 4270 [4140;4920] ms | τ2 (ms) ([2]; […] GABA, 1000 nM 018, monoexponential fit): 3780 [3330;5350]^a ms
Compound: O=C(Nc1cccc(C(=O)N2CCC3(CCNCC3)CC2)c1)c1cccs1 [compound 018, N-(3-(3,9-diazaspiro[5.5]undecane-3-carbonyl)phenyl)thiophene-2-carboxamide]

IC50 ([1]; read-out: pIC50 ± SEM (converted)): 288 nM
Compound: CC(=O)Nc1cccc(C(=O)N2CCC3(CCNCC3)CC2)c1 [compound 2027, N-(3-(3,9-diazaspiro[5.5]undecane-3-carbonyl)phenyl)acetamide]

Compound: NCCCC(=O)O [GABA]
GABA EC80 ([1]; α3β2γ2, calculated from GABA potencies): 10000 nM | t1 (ms), activation time constant ([2]; 100 μM GABA alone (0 nM 018), monoexponential fit, median): 35.0 ms | τ (ms), activation time constant ([2]; […] GABA alone (0 nM 018), monoexponential fit, median [25–75% quartiles]): 174 [148;186]^a ms

— paper PMC7308271, “Discovery of a new class of orthosteric antagonists with nanomolar potency at extrasynaptic GABAA receptors” (Scientific Reports, 2020)
